# Assay results as given in US20210292315A1, “SELENIUM-CONTAINING ISOXAZOLAMINE COMPOUND, PREPARATION METHOD THEREFOR, AND USE THEREOF” (SHANGHAI XINGYE PHARMACEUTICAL TECHNOLOGY CO., LTD, priority 2018, published 2021).
# pIC50: −log10 of the molar value. Read-outs that look alike come from different tables or passages of the source.
# Legend:
# TNF-α = TNF-α activity inhibiting assay: LPS-stimulated peripheral blood, TNF-α by ELISA; type: cell-based, human; conditions: LPS 10 ng/mL, 6 hours, diluted peripheral blood from healthy volunteers, read-out: TNF-α inhibition (%)
# Protocol: Methods: Peripheral blood from healthy volunteers was collected with EDTA anticoagulant tubes. After being diluted 5-fold with 1640 medium (Gibco, USA), the blood was added to 96-well cell culture plates (Costar, USA) and then treated with 10 μL solution of the compound of general formula (I) of the present invention in DMSO (Sigma, USA), and the final concentration of DMSO was 0.2%. After incubation for 60 minutes in an incubator at 37° C. under 5% CO2, 10 μL LPS (Sigma, USA) was added to the reaction system, and the final concentration was 10 ng/mL. After further culturing for 6 hours in the incubator at 37° C. under 5% CO2, the supernatant was collected. The content of TNF-α was determined by ELISA (BD Biosciences, USA). Absorbance was detected at OD450 nm with a microplate reader, with GD 650 nm as reference. The control, a solution containing 0.2% DMSO medium, was as 0% inhibition. Raw data and standard curves were recorded. The four-parameter drug inhibition curve was plotted by XL-fit software and the inhibition rate of each compound was calculated.
# [1] = target: T1, Thioredoxin Reductase 1 (TrxR1) (Homo sapiens, UniProt Q16881); assay: Thioredoxin reductase 1 (TrxR1) activity inhibiting assay, NADPH consumption at 340 nm; type: biochemical; conditions: insulin/Trx/NADPH system, absorbance 340 nm; read-out: TrxR inhibition IC50
# T1 sequence (Q16881 151-649 limits assumed): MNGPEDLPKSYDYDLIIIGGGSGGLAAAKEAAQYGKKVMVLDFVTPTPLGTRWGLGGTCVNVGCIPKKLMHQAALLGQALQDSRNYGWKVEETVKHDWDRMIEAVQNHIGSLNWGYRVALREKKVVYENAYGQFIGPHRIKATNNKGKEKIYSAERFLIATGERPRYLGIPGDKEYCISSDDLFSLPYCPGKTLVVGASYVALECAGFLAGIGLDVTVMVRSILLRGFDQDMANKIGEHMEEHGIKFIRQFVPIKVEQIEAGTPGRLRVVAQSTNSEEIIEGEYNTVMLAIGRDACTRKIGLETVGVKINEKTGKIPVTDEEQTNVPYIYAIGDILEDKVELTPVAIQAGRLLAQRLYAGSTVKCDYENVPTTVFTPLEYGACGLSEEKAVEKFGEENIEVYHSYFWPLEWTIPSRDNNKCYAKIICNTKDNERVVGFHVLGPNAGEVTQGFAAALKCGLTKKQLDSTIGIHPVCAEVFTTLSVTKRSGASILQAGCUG
# Protocol: Working solutions: 0.119 mg/mL of TrxR working solution preparation: 175 μL of TrxR stock solution (0.34 mg/mL) was diluted to 500 μL; 1 mM NADPH working solution preparation, NADPH (5 mg) was dissolved in 12 mL potassium phosphate buffer; 1 mM DTNB working solution preparation: 25 mg DTNB was dissolve in 63 mL DMSO; potassium phosphate buffer system preparation: 0.2 mg/mL bovine serum albumin (BSA) and 1 mM EDTA were added to potassium phosphate buffer at pH 7.4 (K2HPO4/KH2PO4).
# Methods: The TrxR1 inhibitory activity study of selenium-containing isoxazolamines in vitro. Insulin, NADPH, Trx, the samples and TrxR1 were added to a microcuvette in order, and subsequently added the work buffer (0.1 mol/L potassium phosphate/2 mmol/L EDTA) to a total volume of 0.5 mL. The concentration of each component in the obtained reaction system is: insulin 130 μmol/L, NADPH […] (Sigma), Trx 4 μmol/L, the added substrate (the selenium-containing isoxazolamines treated samples). After determination of the initial absorption at 340 nm, the enzymatic reaction was started by adding 20 μg extracted TrxR1 proteins, the decrease in absorbance at 340 nm was monitored. One unit of enzymatic activity is defined as the consumption. The activity can be calculated from the extinction coefficient of NADPH, and the unit of enzyme activity is defined as: 1U=ΔA340 nm/min×1000, the TR activity could be calculated with U/L. The results are shown in table 2.
# [2] = Glutathione peroxidase (GPx)-like activity assay, coupled NADPH oxidation at 340 nm; type: biochemical; conditions: compound 50 μm, GSH 2.0 mM, pH 7.5, 25° C.; for Initial rate v0, Cum-OOH: peroxide Cum-OOH 1.6 mM; for Initial rate v0, H2O2: peroxide H2O2 1.6 mM; for Initial rate v0, tBuOOH: peroxide tBuOOH 1.6 mM
# Protocol: Method: GPX activity of selenium compounds was assayed by ultraviolet spectrophotometry. Glutathione (2.0 mM), EDTA (1 mM), glutathione disulfide reductase (1.7 units mL^−1), and nicotinamide adenine dinucleotide phosphate […] (NADPH; 0.4 mM) were mixed intopotassium phosphate buffer (0.1 M, pH=7.5). The selenium compounds (50 μm) was added to the above mixture At room temperature (25° C.), and the reaction was started by the addition of H2O2, tBuOOH or Cum-OOH (1.6 mM) respectively. The initial reduction rates were calculated from the rate of NADPH oxidation at 340 nm in a GSH assay. Each initial rate was measured at least three times and calculated from the first 5-10% of the reaction by using 6.22 mM^−1 cm^−1 as the molar extinction coefficient for NADPH. For the peroxidase activity, the rates were corrected for the background reaction between peroxide and thiol.
SMILES,pIC50 (TNF-α),pIC50 [1],pIC50 (TNF-α; Homo sapiens),further results
COc1ccc2nc(-n3[se]c4ccccc4c3=O)sc2c1 [Compound 23],4.00 to 5.00,4.30 to 5.30,,
O=C1CC(n2[se]c3ccccc3c2=O)C(=O)N1 (stereo not shown) [Compound 24],4.00 to 5.00,,,
COc1ccc2[se]n(C3CC(=O)NC3=O)c(=O)c2c1 (stereo not shown) [Compound 25],,4.30 to 5.30,4.00 to 5.00,
O=C1CC(n2[se]c3cc(F)ccc3c2=O)C(=O)N1 (stereo not shown) [Compound 26],4.00 to 5.00,,,"Initial rate v0, Cum-OOH [2]: 164.5 ± 9.1 μm min^−1; Initial rate v0, H2O2 [2]: 145.2 ± 3.4 μm min^−1; Initial rate v0, tBuOOH [2]: 55.7 ± 5.2 μm min^−1"
O=C1CC(n2[se]c3c(F)cccc3c2=O)C(=O)N1 (stereo not shown) [Compound 27],5.00 to 6.00,4.30 to 5.30,,
Cc1cccc2c(=O)n(C3CC(=O)NC3=O)[se]c12 (stereo not shown) [Compound 28],> 6.00,,,
COc1cccc2c(=O)n(-c3nc4ccc(OC(F)(F)F)cc4s3)[se]c12 [Compound 30],,> 5.30,4.00 to 5.00,
O=C1c2ccccc2[Se](=O)N1C12CC3CC(CC(O)(C3)C1)C2 (stereo not shown) [Compound 32],,,< 4.00,"Initial rate v0, Cum-OOH [2]: 11.5 ± 0.2 μm min^−1; Initial rate v0, H2O2 [2]: 36.7 ± 0.8 μm min^−1; Initial rate v0, tBuOOH [2]: 12.0 ± 2.3 μm min^−1"
O=C1c2ccccc2[Se](=O)N1c1nc2ccccc2s1 (stereo not shown) [Compound 33],,,< 4.00,
O=C1c2ccccc2[Se](=O)N1c1nc2ccc(OC(F)(F)F)cc2s1 (stereo not shown) [Compound 34],,4.00 to 4.30,4.00 to 5.00,"Initial rate v0, Cum-OOH [2]: 12.4 ± 0.3 μm min^−1; Initial rate v0, H2O2 [2]: 39.7 ± 1.4 μm min^−1; Initial rate v0, tBuOOH [2]: 14.2 ± 1.1 μm min^−1"
Nc1cccc2c1[Se](=O)N(C1CCC(=O)NC1=O)C2=O (stereo not shown) [Compound 35],> 6.00,,,
O=C1CCC(N2C(=O)c3cc(F)ccc3[Se]2=O)C(=O)N1 (stereo not shown) [Compound 36],4.00 to 5.00,,,
CC(=O)Nc1cccc2c1[Se](=O)N(C1CCC(=O)NC1=O)C2=O (stereo not shown) [Compound 37],4.00 to 5.00,,,
O=C1CCC(N2C(=O)c3ccc(F)cc3[Se]2=O)C(=O)N1 (stereo not shown) [Compound 39],4.00 to 5.00,,,
COc1cccc2c1[Se](=O)N(C1CCC(=O)NC1=O)C2=O (stereo not shown) [Compound 40],,4.00 to 4.30,5.00 to 6.00,
O=C1CC(N2C(=O)c3ccccc3[Se]2=O)C(=O)N1 (stereo not shown) [Compound 41],4.00 to 5.00,,,
COc1cccc2c1[Se]N(C1CCC(=O)NC1=O)C2 (stereo not shown) [Compound 44],,,5.00 to 6.00,
COc1ccc2c(c1)CN(C1CCC(=O)NC1=O)[Se]2 (stereo not shown) [Compound 45],,4.30 to 5.30,,
COc1cccc2c1[Se]N(C13CC4CC(CC(O)(C4)C1)C3)C2 [Compound 50],,,4.00 to 5.00,
"O=c1c2ccccc2[se]n1-c1ccccc1 [Ebselen, reference compound]",,4.00 to 4.30,,
"Nc1cccc2c1CN(C1CCC(=O)NC1=O)C2=O (stereo not shown) [Lenadomide, reference compound]",,,> 6.00,
"O=C1CCC(N2C(=O)c3ccccc3C2=O)C(=O)N1 (stereo not shown) [Thalidomide, reference compound]",,,< 4.00,
